Measurements as given in publication PMC9530963, “A cathelicidin antimicrobial peptide from Hydrophis cyanocinctus inhibits Zika virus infection by downregulating expression of a viral entry factor” (The Journal of Biological Chemistry, 2022).

Assays:
ZIKV [1] = assay: Susceptibility of U251 cells to ZIKV (peptide pretreatment); format: cell-based, ZIKV strain PRVABC59; settings: 1.25, 2.5, and 5 μM, 2 h before ZIKV MOI = 1; 24 h; Western blot
Method: Figure 5 Hc-CATH downregulates AXL in U251 cell.A, schematic diagram of B and C. B, U251 cells were seeded in 24-well plates (5 × 10^4 cells/well) and cultured in DMEM containing 2% FBS. Hc-CATH (1.25, 2.5, and 5 μM) or same volume of PBS (peptide solvent) was added to cells and incubated at 37 °C for 24 h. The level of AXL was tested by Western blot. C, U251 cells were seeded in 8-well cover slip chambers (5 × 10^4 cells/well) and cultured in DMEM containing 2% FBS. Hc-CATH (1.25, 2.5, and 5 μM) or PBS was added to cells and incubated at 37 °C for 24 h. The level of AXL was tested by immunofluorescence staining. The scale bar represents 50 μm. D, schematic diagram of E–G. E–G, U251 cells were seeded in 24-well plates (5 × 10^4 cells/well) and cultured in DMEM containing 2% FBS. Hc-CATH (1.25, 2.5, and 5 μM) or PBS was added to cells and incubated at 37 °C for 2 h. Cells were washed with PBS and incubated with ZIKV (MOI = 1). After incubation at 37 °C for 2 h, cells were washed with PBS and cultured in DMEM containing 2% FBS.
Vero, A549, or U251 cells were incubated with peptide or PBS at 37 °C for 2 h. […]
The effect of Hc-CATH on AXL was further confirmed in A549 and U251 cells. A549 or U251 cells were incubated with Hc-CATH (1.25, 2.5, and 5 μM) or PBS at 37 °C for 24 h, and the level of AXL was detected by WB and IF, respectively. […]

ZIKV [2] = assay: Binding of Hc-CATH to ZIKV (ELISA); set-up: species or system ZIKV strain PRVABC59; settings: plates coated with 0.25 μM peptide, 1 × 10^6 PFU ZIKV, absorbance at 450 nm
Method: Figure 8 Hc-CATH directly inactivates ZIKV particles by disrupting viral membrane.A, schematic diagram of B–G (Hc-CATH-Vero-pre). B–G, direct inactivation of ZIKV by Hc-CATH. ZIKVs (MOI = 1) were incubated with Hc-CATH (2.5 μM), AC5 (2.5 μM), LL-37 (2.5 μM), or PBS (peptide solvent) at 37 °C for 2 h, and then the ZIKV–PBS mixture and ZIKV–peptide mixture were centrifugated at 100,000g for 70 min. The pellets were washed with PBS and centrifugated at 100,000g for 70 min again. The pellets were resuspended in PBS, added to Vero cells, and incubated for 2 h. Cells were washed with PBS and cultured in fresh DMEM containing 2% FBS. After culture at 37 °C for 48 h, the intracellular ZIKV RNA (B), NS3 protein (C and D), E protein level (E, the scale bar represents 50 μm), and extracellular ZIKV titer (F and G) were tested by qPCR, Western blot, immunofluorescence staining, and plaque-forming assay, respectively. H, binding of Hc-CATH to ZIKV. High-affinity binding plates were coated with 0.25 μM of Hc-CATH, BSA, AC5, or LL-37. Then, 1 × 10^6 PFU of ZIKV was added and incubated. […] Absorbance at 450 nm was measured after reactions were stopped using 0.5 M sulfuric acid. […] After the residual RNase was inactivated, the undigested genomic RNA in the intact ZIKV particles was extracted and quantified by testing the genes of PrM, E, and Cap proteins, respectively. ∗∗p < 0.01 and ∗∗∗p < 0.001. […]

ZIKV [3] = assay: ZIKV replication stage, U251 cells (peptide added after infection); format: cell-based, ZIKV strain PRVABC59; settings: 2.5 μM after ZIKV infection, 48 h; NS3 Western blot
Method: B–I, Vero (B–G), A549 (H), or U251 (I) cells were incubated with ZIKV (MOI = 1) at 37 °C for 2 h, washed with PBS, and transferred with fresh DMEM containing 2% FBS and Hc-CATH (2.5 μM), AC5 (2.5 μM), LL-37 (2.5 μM), or PBS (solvent of peptide). After culture at 37 °C for 48 h, intracellular ZIKV RNA (B), NS3 protein (C, D, H, and I), E protein level (E, the scale bar represents 50 μm), and extracellular ZIKV titer (F and G) were detected by qPCR, Western blot, immunofluorescence staining, and plaque-forming assay, respectively.
Vero cells were incubated with ZIKV (MOI = 1) at 37 °C for 2 h, washed three times with PBS, and transferred with fresh DMEM containing 2% FBS and Hc-CATH (2.5 μM), AC5 (2.5 μM), LL-37 (2.5 μM), or PBS. After culture at 37 °C for 48 h, intracellular ZIKV RNA, NS3 protein, E protein, and extracellular ZIKV titer were detected by qPCR, WB, IF, and plaque-forming assay, respectively. The effect of Hc-CATH on ZIKV replication stage was further tested in A549 and U251 cells under the same condition, and intracellular ZIKV NS3 protein was detected by WB.

KFFKRLLKSVRRAVKKFRKKPRLIGLSTLL [Hc-CATH, cathelicidin antimicrobial peptide identified from the sea snake Hydrophis cyanocinctus]
susceptibility of U251 cells to ZIKV (NS3 protein) (ZIKV [1]): decreased the susceptibility | binding to ZIKV (ZIKV [2]): stronger binding affinity with ZIKV as compared with bovine serum albumin | ZIKV infection in U251 cells, peptide added after infection (ZIKV [3]): did not inhibit ZIKV infection
